The values that follow are results of earlier work, collected in PMC4763008, “Selective Inhibition of Bakuchicin Isolated from Psoralea corylifolia on CYP1A in Human Liver Microsomes” (Evidence-based Complementary and Alternative Medicine : eCAM, 2016).

Series [1] has as its system CYP1A. The settings on record: rat liver microsomes ref 17; cited from earlier work. On the technique in general: Microsomes from liver hold many membrane-bound enzymes, among them those of drug oxidation.
The target in series [2] is T1, CYP1A (Homo sapiens, UniProt P05177).
T1 sequence (P05177 2-516): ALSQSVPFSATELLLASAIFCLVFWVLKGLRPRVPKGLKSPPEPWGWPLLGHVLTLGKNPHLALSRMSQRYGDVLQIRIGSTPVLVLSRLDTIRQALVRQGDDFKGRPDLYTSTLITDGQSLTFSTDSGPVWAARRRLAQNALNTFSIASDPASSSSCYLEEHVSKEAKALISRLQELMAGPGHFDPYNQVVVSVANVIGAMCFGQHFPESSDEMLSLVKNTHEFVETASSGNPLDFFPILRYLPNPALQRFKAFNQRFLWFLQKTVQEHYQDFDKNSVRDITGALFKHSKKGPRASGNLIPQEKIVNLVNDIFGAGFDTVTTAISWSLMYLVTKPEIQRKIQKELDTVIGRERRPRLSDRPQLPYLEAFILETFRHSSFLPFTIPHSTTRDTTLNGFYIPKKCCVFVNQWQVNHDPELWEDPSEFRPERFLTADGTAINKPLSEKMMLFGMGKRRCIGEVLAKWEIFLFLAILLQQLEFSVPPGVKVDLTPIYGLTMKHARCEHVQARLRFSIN
Conditions: human liver microsomes ref 17; cited from earlier work.

For `O=c1ccc2ccc3occc3c2o1` [isopsoralen], the type of inhibitor result was “reversible and time-dependent inhibitor” in the series on CYP1A [1]; “reversible and time-dependent inhibitor” at CYP1A [2].
In the case of `O=c1ccc2cc3ccoc3cc2o1` [psoralen], the type of inhibitor result was “reversible and time-dependent inhibitor” in the series on CYP1A [1]; “reversible and time-dependent inhibitor” on CYP1A [2].
